Test results reported in ChEMBL document CHEMBL1201862, “PubChem BioAssay data set” (2004).
Active and inactive are the calls of the source. Cut-off read from the data, not from the text of the source: actives have a measured IC50 and inactives only a lower limit.

Tests used:
Assay type in all cases: functional
Caspase-3 = target: T1, Caspase-3 (Homo sapiens, UniProt P42574);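 note: Dose-response selectivity test against caspase-3 for candidate inhibitors of sentrin-specific proteases (SENPs)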
T1 sequence (P42574 whole entry): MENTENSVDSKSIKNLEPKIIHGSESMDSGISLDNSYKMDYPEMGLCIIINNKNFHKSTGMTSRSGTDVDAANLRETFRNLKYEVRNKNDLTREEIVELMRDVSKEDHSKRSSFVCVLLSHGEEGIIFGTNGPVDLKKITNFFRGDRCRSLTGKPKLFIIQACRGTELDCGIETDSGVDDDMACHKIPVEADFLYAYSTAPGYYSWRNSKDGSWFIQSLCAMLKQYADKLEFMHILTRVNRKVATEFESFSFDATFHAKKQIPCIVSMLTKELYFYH

[1] = target: T2, Sentrin-specific protease 7 (Homo sapiens, UniProt Q9BQF6);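 note: Luminescence-based dose-response confirmation of ultra-high-throughput screening hits, measuring inhibition of SENP7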
T2 sequence (Q9BQF6 whole entry): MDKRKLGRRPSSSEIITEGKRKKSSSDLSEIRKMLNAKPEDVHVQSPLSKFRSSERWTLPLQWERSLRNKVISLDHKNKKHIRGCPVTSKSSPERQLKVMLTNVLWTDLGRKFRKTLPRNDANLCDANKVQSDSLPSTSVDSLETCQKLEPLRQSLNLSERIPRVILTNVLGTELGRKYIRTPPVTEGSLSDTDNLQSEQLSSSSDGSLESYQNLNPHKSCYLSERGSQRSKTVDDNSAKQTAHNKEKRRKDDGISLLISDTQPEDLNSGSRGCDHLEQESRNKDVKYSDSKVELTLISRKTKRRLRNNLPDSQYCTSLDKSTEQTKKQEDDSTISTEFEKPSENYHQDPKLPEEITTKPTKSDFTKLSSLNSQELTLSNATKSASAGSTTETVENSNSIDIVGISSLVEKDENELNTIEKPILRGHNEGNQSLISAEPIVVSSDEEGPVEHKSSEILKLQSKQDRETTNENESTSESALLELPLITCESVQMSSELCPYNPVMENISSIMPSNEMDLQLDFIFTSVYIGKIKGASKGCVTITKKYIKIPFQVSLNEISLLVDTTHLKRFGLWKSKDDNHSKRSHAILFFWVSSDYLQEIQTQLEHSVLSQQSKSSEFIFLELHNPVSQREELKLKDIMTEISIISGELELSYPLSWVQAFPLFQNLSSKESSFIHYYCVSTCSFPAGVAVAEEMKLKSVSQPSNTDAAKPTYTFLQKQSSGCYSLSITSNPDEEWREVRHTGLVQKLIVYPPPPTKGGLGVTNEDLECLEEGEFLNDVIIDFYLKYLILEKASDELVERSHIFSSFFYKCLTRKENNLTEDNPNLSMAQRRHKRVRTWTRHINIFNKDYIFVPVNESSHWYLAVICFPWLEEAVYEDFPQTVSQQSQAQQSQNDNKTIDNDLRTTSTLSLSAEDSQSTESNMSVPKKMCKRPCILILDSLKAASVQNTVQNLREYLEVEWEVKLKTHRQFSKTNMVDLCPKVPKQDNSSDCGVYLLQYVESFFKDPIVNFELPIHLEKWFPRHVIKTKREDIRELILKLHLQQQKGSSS

[2] = target: T3, Sentrin-specific protease 6 (Homo sapiens, UniProt Q9GZR1);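 note: Luminescence-based dose-response confirmatory assay of SENP6 inhibition, following up an ultra-high-throughput screen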
T3 sequence (Q9GZR1 whole entry): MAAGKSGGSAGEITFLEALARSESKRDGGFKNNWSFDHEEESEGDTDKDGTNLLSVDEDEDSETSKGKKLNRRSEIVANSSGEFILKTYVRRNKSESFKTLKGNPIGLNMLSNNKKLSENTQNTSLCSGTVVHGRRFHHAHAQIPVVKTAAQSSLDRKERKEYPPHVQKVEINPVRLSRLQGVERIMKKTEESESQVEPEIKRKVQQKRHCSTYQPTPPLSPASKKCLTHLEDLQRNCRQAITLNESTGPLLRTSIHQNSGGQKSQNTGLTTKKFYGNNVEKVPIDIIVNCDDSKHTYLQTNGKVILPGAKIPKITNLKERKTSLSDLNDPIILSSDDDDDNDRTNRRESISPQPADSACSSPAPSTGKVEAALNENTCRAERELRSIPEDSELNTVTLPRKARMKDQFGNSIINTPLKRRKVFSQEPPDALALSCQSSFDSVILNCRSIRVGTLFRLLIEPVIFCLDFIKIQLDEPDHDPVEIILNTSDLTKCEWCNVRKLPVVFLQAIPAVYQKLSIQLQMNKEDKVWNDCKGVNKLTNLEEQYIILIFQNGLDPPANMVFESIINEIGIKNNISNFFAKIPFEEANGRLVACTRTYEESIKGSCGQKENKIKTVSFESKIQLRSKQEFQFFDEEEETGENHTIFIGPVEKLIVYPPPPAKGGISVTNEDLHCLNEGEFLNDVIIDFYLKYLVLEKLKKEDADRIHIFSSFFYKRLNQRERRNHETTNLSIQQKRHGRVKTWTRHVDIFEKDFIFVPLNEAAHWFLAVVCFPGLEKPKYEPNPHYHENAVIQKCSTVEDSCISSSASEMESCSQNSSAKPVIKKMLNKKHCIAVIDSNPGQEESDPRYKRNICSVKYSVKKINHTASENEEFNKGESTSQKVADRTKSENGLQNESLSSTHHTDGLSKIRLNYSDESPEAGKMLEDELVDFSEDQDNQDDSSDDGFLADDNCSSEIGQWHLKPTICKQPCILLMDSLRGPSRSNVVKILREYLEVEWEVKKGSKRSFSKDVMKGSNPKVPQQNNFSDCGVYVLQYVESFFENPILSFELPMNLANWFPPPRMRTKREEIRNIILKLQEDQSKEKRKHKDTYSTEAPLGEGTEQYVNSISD

[3] = target: T4, Sentrin-specific protease 8 (Homo sapiens, UniProt Q96LD8);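 note: luminescence read-out of SENP8 inhibition, dose-response confirmation following an ultra-high-throughput screen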
T4 sequence (Q96LD8 whole entry): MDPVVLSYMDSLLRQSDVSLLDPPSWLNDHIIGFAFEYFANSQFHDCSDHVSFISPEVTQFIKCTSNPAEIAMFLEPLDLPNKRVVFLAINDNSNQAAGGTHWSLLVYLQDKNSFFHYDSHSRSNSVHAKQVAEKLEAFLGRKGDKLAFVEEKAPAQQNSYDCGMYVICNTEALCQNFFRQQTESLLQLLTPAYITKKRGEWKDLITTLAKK

Measured: IC50

O=C1c2ccccc2C(=O)C12OC2c1cccc2ccccc12 (configuration not stated)
active: Caspase-3 91.9 µM | [1] 2.86 µM | [2] 2.37 µM | [3] 4.53 µM

CCC(COC)Oc1cc(NCc2ccccc2)c2ncn(C(C)C)c2c1 (configuration not stated)
active: Caspase-3 6.47 µM | [1] 5.61 µM | [2] 3.62 µM | [3] 4.26 µM

O=c1[nH]c(N2CCOCC2)cc2ccccc12
active: Caspase-3 1.59 µM | [1] 1.96 µM | [2] < 1.55 µM | [3] 2.12 µM
